Data set [1] relates to K-562. Description: MTT cytotoxic assay, leukaemia K-562 cell line. Format: cell-based. The protocol: (§1) To investigate cytotoxic activity of the final target compounds 9a–r, MTT assay was performed. Three different cell lines were used, leukaemia (K-562), breast (MCF-7) and colon (HT-29) cell lines. Cisplatin and erlotinib were the reference drugs used in this study.
(§2) All target compounds 9a–r were screened against three different cancer cell lines, leukaemia (K-562), breast (MCF-7), and colon (HT-29). MTT assay was used. Both cisplatin and erlotinib were used as the reference drugs. Cytotoxicity results are recorded in Table 1.
A general note: Tetrazolium assays rely on reduction of a dye to a coloured formazan, in cell work by metabolically active cells.

Data set [2] has as its system MCF-7. Kind of data set: MTT cytotoxic assay, breast MCF-7 cell line. Type of data set: cell-based, human. The protocol:
as §1, §2

Data set [3] has as its system HT-29. Description: MTT cytotoxic assay, colon HT-29 cell line. The following applies: read-out: (IC50 μM)±SD HT-29. Type of data set: cell-based. The protocol:
as §1, §2

Data set [4] deals with T1, STAT3 (Homo sapiens, UniProt P40763).
T1 construct: endogenous in cells; host or cells: K-562 and MCF-7 cells (nuclear extracts)
Kind of data set: TransAM STAT3 activation assay on nuclear extracts of treated cells. Format: cell-based. The following applies: 24 h, read-out: Inhibition IC50 (µM) STAT3. The method, then:
(§3) Both K-562 and MCF-7 cell lines were seeded overnight in plates, then 10 µM of test compounds (9a and 9r for MCF-7 cells; 9d, 9f, and 9n for K-562 cells) or reference drug pacritinib was added for 24 h. A nuclear extract kit was used to extract nuclear fractions from treated cells using the manufacture’s procedure. STAT3 and STAT5a activations were analysed using the collected nuclear extracts (20 µg) through TransAM STAT3 and STAT5a activation assay guided by the manufacture’s protocol. The obtained results were expressed in the form of mean ± SD. Each experiment was done in triplicate.
(§4) Pacritinib, an inhibitor for both STAT3 and STAT5a[49] was used in this study as a reference drug.

For data set [5], the target named is T2, STAT5a (Homo sapiens, UniProt P42229).
T2 construct: endogenous in cells; host or cells: K-562 and MCF-7 cells (nuclear extracts)
T2 sequence (P42229 1-794): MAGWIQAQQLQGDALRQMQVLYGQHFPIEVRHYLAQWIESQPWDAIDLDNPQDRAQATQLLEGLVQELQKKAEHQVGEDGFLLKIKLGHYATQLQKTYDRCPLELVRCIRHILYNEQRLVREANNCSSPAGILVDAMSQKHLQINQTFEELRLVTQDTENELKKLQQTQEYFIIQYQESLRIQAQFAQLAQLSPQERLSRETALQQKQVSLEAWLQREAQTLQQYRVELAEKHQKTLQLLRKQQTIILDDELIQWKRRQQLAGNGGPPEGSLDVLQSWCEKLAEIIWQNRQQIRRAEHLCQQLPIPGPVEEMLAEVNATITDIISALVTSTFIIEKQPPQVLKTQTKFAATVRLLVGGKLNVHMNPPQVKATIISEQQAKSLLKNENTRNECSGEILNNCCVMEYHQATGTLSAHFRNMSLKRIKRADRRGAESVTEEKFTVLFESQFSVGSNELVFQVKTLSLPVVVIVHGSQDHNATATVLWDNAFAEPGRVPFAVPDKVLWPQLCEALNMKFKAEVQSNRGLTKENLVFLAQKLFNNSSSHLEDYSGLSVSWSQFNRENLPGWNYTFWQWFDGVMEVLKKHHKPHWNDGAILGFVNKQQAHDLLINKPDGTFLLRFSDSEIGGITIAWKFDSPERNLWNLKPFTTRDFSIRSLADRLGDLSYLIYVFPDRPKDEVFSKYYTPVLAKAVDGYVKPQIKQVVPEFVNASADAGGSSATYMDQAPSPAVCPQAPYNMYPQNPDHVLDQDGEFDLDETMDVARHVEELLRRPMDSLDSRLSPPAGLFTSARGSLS
Description: TransAM STAT5a activation assay on nuclear extracts of treated cells. Type of data set: cell-based. The following applies: 24 h, read-out: Inhibition IC50 (µM) STAT5a. The method, then: as §3, §4

A short description of data set [6]: in vitro. Conditions: human.
Where [7] appears, read: Homo sapiens, K562, read-out: (IC50 μM)±SD K-562.
Where [8] appears, read: Homo sapiens, MCF7, read-out: (IC50 μM)±SD MCF-7.

The structures appear in SMILES notation. Like-named read-outs stand apart in the source and are kept apart here.

The term IC50 denotes the midpoint of a concentration-inhibition curve. As usually defined, the melting point is the temperature, or range, at which the solid turns liquid.

T1 sequence (P40763 whole entry): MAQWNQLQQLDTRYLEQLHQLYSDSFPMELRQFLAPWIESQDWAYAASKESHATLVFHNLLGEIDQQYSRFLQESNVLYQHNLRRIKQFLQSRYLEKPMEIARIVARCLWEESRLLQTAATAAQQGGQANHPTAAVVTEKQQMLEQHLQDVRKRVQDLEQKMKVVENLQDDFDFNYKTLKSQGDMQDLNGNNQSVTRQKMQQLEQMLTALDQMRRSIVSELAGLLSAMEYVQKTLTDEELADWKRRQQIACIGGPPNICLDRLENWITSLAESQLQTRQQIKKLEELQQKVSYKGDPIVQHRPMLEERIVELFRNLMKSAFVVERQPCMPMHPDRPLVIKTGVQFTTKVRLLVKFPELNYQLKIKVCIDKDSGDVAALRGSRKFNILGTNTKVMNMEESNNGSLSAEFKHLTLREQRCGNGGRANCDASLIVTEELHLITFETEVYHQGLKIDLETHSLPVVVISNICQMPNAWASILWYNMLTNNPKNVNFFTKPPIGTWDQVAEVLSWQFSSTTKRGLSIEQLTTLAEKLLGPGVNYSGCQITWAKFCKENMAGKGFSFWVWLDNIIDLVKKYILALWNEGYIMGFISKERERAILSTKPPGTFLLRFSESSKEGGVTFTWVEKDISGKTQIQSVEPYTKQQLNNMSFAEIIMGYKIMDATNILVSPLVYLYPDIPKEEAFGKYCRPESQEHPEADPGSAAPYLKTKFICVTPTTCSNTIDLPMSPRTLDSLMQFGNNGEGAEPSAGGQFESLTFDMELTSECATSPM

For the compound `COc1ccc(-c2cc(-c3ccc(OCCCl)cc3)nc(SCC(=O)Nc3ccc(C(=O)/C=C/c4ccc(OC)c(OC)c4)cc3)n2)cc1` [Compound 9h, (ZE)-2-{4-[4-(2-Chloroethoxy)phenyl]-6-(4-methoxyphenyl)pyrimidin-2-ylthio}-N-{4-[3-(3,4-dimethoxyphenyl)acryloyl]phenyl}acetamide], the melting point was in the range of 135 to 137 °C. The IC50 in data set [1] (setting [7]) is 7.07 ± 0.31 µM. The IC50 in data set [2] (setting [8]) is 7.7 ± 0.32 µM. Further, the IC50 in data set [3] (Homo sapiens) was found to be 18.8 ± 0.88 µM.
As for `C#Cc1cccc(Nc2ncnc3cc(OCCOC)c(OCCOC)cc23)c1` [Erlotinib, reference compound], the results for the IC50 in data set [1] (setting [7]), in data set [2] (setting [8]) and in data set [3] (Homo sapiens) were 9.85 ± 0.51 µM, 10.6 ± 0.58 µM and 9.2 ± 0.41 µM, respectively.
The compound `COc1ccc(/C=C/C(=O)c2ccc(NC(=O)CSc3nc(-c4ccc(OC)cc4)cc(-c4ccc(OCCCl)cc4)n3)cc2)cc1` [Compound 9g, (ZE)-2-{4-[4-(2-Chloroethoxy)phenyl]-6-(4-methoxyphenyl)pyrimidin-2-ylthio}-N-{4-[3-(4-methoxyphenyl)acryloyl]phenyl}acetamide] registered a melting point of 280 to 282 °C. For the same compound, the IC50 in data set [1] (setting [7]) was 3.17 ± 0.11 µM. Also, the IC50 in data set [2] (setting [8]) came to 10.4 ± 0.64 µM. For the same compound, the concentration for half-maximal inhibition (IC50) in data set [3] (Homo sapiens) came out at 10.6 ± 0.47 µM.
The compound `COc1ccc(-c2cc(-c3ccc(C)cc3)nc(SCC(=O)Nc3ccc(C(=O)/C=C/c4cc(OC)c(OC)c(OC)c4)cc3)n2)cc1` [Compound 9c, (ZE)-2-[4-(4-Methoxyphenyl)-6-p-tolylpyrimidin-2-ylthio]-N-{4-[3-(3,4,5-trimethoxyphenyl)acryloyl]phenyl}acetamide] gave a melting point of 195 to 197 °C. For the same compound, in data set [1] (setting [7]), the IC50 stood at 11.42 ± 0.04 µM. Also, in data set [2] (setting [8]), the IC50 is 4.25 ± 0.13 µM. Further, the IC50 in data set [3] (Homo sapiens) was 8.7 ± 0.28 µM.
On to `COc1ccc(/C=C/C(=O)c2ccc(NC(=O)CSc3nc(-c4ccc(OC)cc4)cc(-c4ccc([N+](=O)[O-])cc4)n3)cc2)cc1` [Compound 9d, (ZE)-2-[4-(4-Methoxyphenyl)-6-(4-nitrophenyl)pyrimidin-2-ylthio]-N-{4-[3-(4-methoxyphenyl)acryloyl]phenyl}acetamide], for which the melting point was 183 to 185 °C. Further, the IC50 in data set [1] (setting [7]) is 0.77 ± 0.03 µM. For the same compound, the IC50 in data set [2] (setting [8]) is 14.2 ± 0.74 µM. The IC50 in data set [3] (Homo sapiens) came to 25.9 ± 1.67 µM. Also, in data set [4] (K562 cells), the IC50 turned out to be 160 ± 4.59 µM. In addition, the IC50 in data set [5] (K562 cells) was 116 ± 4.13 µM. Moreover, the IC50 in data set [6] was 29.2 to 40.1 µM.
Consider `C1=C/COCc2cc(ccc2OCCN2CCCC2)Nc2nccc(n2)-c2cccc(c2)COC/1` [Pacritinib, reference compound], for which the IC50 in data set [4] (K562 cells) worked out at 65.5 ± 2.55 µM; in data set [4] (MCF7 cells), 79.5 ± 2.17 µM; in data set [5] (K562 cells), 69.8 ± 1.82 µM; in data set [5] (MCF7 cells) it was 54.4 ± 1.09 µM.
`COc1ccc(-c2cc(-c3ccc([N+](=O)[O-])cc3)nc(SCC(=O)Nc3ccc(C(=O)/C=C/c4ccc(OC)c(OC)c4)cc3)n2)cc1` [Compound 9e, (ZE)-N-{4-[3-(3,4-Dimethoxyphenyl)acryloyl]phenyl}-2-[4-(4-methoxyphenyl)-6-(4-nitrophenyl)pyrimidin-2-ylthio]-acetamide] had a melting point of 225 to 227 °C. For the same compound, in data set [1] (setting [7]), the IC50 was 7.05 ± 0.28 µM. Moreover, the IC50 in data set [2] (setting [8]) worked out at 18.7 ± 0.92 µM. For the same compound, in data set [3] (Homo sapiens), the IC50 was determined as 7.31 ± 0.36 µM.
Regarding `COc1ccc(/C=C/C(=O)c2ccc(NC(=O)CSc3nc(-c4ccc(Cl)cc4)cc(-c4ccc(OCCCl)cc4)n3)cc2)cc1OC` [Compound 9q], the melting point lay in the range of 210 to 212 °C. Further, the IC50 in data set [1] (setting [7]) turned out to be 5.77 ± 0.16 µM. In addition, the IC50 in data set [2] (setting [8]) was 6.81 ± 0.25 µM. Also, in data set [3] (Homo sapiens), the IC50 is 6.06 ± 0.29 µM.
For `COc1ccc(/C=C/C(=O)c2ccc(NC(=O)CSc3nc(-c4ccc(Cl)cc4)cc(-c4ccc([N+](=O)[O-])cc4)n3)cc2)cc1` [Compound 9m, (ZE)-2-[4-(4-Chlorophenyl)-6-(4-nitrophenyl)pyrimidin-2-ylthio]-N-{4-[3-(4-methoxyphenyl)acryloyl]phenyl}acetamide] the same measures were 190 to 192 °C, 3.86 ± 0.14 µM, 3.9 ± 0.09 µM and 7.9 ± 0.22 µM.
In turn, `COc1ccc(/C=C/C(=O)c2ccc(NC(=O)CSc3nc(-c4ccc(Cl)cc4)cc(-c4ccc(OCCCl)cc4)n3)cc2)cc1` [Compound 9p] came in with a melting point of 136 to 138 °C. Besides, the IC50 in data set [1] (setting [7]) came out at 1.74 ± 0.04 µM. Also, in data set [2] (setting [8]), the IC50 is 11.6 ± 0.49 µM. Further, the IC50 in data set [3] (Homo sapiens) amounted to 11.6 ± 0.63 µM.
For `N.N.[Cl][Pt][Cl]` [Cisplatin, reference compound], the IC50 in data set [1] (read-out: (IC50 μM)±SD K-562) came to 2.31 ± 0.09 µM; in data set [2] (read-out: (IC50 μM)±SD MCF-7) it was 6.62 ± 0.29 µM; in data set [3], 1.12 ± 0.06 µM.
Take `COc1cc(/C=C/C(=O)c2ccc(NC(=O)CSc3nc(-c4ccc(Cl)cc4)cc(-c4ccc([N+](=O)[O-])cc4)n3)cc2)cc(OC)c1OC` [Compound 9o, (ZE)-2-[4-(4-Chlorophenyl)-6-(4-nitrophenyl)pyrimidin-2-ylthio]-N-{4-[3-(3,4,5-trimethoxyphenyl)acryloyl]phenyl}acetamide]: the melting point lay within 268 to 270 °C. For the same compound, the IC50 in data set [1] (setting [7]) was determined as 12.3 ± 0.72 µM. Also, in data set [2] (setting [8]), the IC50 came to 3.62 ± 0.084 µM. In addition, the IC50 in data set [3] (Homo sapiens) worked out at 3.62 ± 0.08 µM.
`COc1ccc(/C=C/C(=O)c2ccc(NC(=O)CSc3nc(-c4ccc(C)cc4)cc(-c4ccc(Cl)cc4)n3)cc2)cc1OC` [Compound 9k, (ZE)-2-[4-(4-Chlorophenyl)-6-p-tolylpyrimidin-2-ylthio]-N-{4-[3-(3,4-dimethoxyphenyl)acryloyl]phenyl}acetamide]: the melting point lay within 144 to 146 °C. Further, in data set [1] (setting [7]), the IC50 turned out to be 9.95 ± 0.29 µM. In data set [2] (setting [8]), the IC50 came out at 28.7 ± 1.39 µM. Besides, the IC50 in data set [3] (Homo sapiens) was 5.61 ± 0.18 µM.
For `COc1ccc(-c2cc(-c3ccc(C)cc3)nc(SCC(=O)Nc3ccc(C(=O)/C=C/c4ccc(OC)c(OC)c4)cc3)n2)cc1` [Compound 9b, (ZE)-N-{4-[3-(3,4-Dimethoxyphenyl)acryloyl]phenyl}-2-[4-(4-methoxyphenyl)-6-p-tolylpyrimidin-2-ylthio]acetamide], the melting point was 165 to 167 °C. The IC50 in data set [1] (setting [7]) came to 3.62 ± 0.08 µM. The IC50 in data set [2] (setting [8]) is 22.4 ± 1.57 µM. In data set [3] (Homo sapiens), the IC50 was determined as 16.4 ± 0.76 µM.
For `COc1ccc(/C=C/C(=O)c2ccc(NC(=O)CSc3nc(-c4ccc(C)cc4)cc(-c4ccc(Cl)cc4)n3)cc2)cc1` [Compound 9j, (ZE)-2-[4-(4-Chlorophenyl)-6-p-tolylpyrimidin-2-ylthio]-N-{4-[3-(4-methoxyphenyl)acryloyl]phenyl}acetamide] the same measures were 242 to 244 °C, 4.26 ± 0.06 µM, 6.26 ± 0.24 µM and 6.26 ± 0.34 µM.
In the case of `COc1ccc(-c2cc(-c3ccc(OCCCl)cc3)nc(SCC(=O)Nc3ccc(C(=O)/C=C/c4cc(OC)c(OC)c(OC)c4)cc3)n2)cc1` [Compound 9i, (ZE)-2-{4-[4-(2-Chloroethoxy)phenyl]-6-(4-methoxyphenyl)pyrimidin-2-ylthio}-N-{4-[3-(3,4,5-trimethoxyphenyl)acryloyl]phenyl}acetamide], the melting point fell in the range of 116 to 118 °C. The IC50 in data set [1] (setting [7]) came out at 9.71 ± 0.41 µM. Further, the IC50 in data set [2] (setting [8]) was determined as 11.5 ± 0.81 µM. For the same compound, the IC50 in data set [3] (Homo sapiens) is 11.5 ± 0.23 µM.
For `COc1cc(/C=C/C(=O)c2ccc(NC(=O)CSc3nc(-c4ccc(C)cc4)cc(-c4ccc(Cl)cc4)n3)cc2)cc(OC)c1OC` [Compound 9l, (ZE)-2-[4-(4-Chlorophenyl)-6-p-tolylpyrimidin-2-ylthio]-N-{4-[3-(3,4,5-trimethoxyphenyl)acryloyl]phenyl}acetamide] the same measures were 234 to 236 °C, 42.6 ± 1.99 µM, 13.5 ± 0.62 µM and 2.37 ± 0.07 µM.

The values are drawn from article PMC7144330, “2-Thiopyrimidine/chalcone hybrids: design, synthesis, ADMET prediction, and anticancer evaluation as STAT3/STAT5a inhibitors” (Journal of Enzyme Inhibition and Medicinal Chemistry, 2020).
